The text below walks through data of paper PMC10744248, “Unsymmetrical Pd(II) Pincer Complexes with Benzothiazole and Thiocarbamate Flanking Units: Expedient Solvent-Free Synthesis and Anticancer Potential” (International Journal of Molecular Sciences, 2023).

In one data set the test system is human cell lines. Kind of data set: MTT cytotoxicity assay, cell line panel (line not specified). To be noted: at a concentration as high as 60 μM. Format: cell-based. As to the method: (§1) To estimate the anticancer potential of palladacycles 2a,b, their ability to inhibit cell growth in different solid and blood cancer cell lines was determined using the conventional MTT assay. […] This underscores the importance of a more labile pincer-type coordination that can be achieved not only by the introduction of two different donor centers (like hard nitrogen and soft sulfur atoms) but also via elongating one of the side arms (like in the considered thiophosphoryloxy and thiocarbamate derivatives). In turn, the stability of a pincer-type framework of complex 2b, used as a representative example, in neat DMSO, DMSO–water, and DMSO–PBS mixtures for 2 days was confirmed by the results of UV-vis spectroscopic studies (for the corresponding spectra, see Figures S33–S35 in the SI).
However, in certain cases, the selectivity indices approached and even exceeded 10.0. Of particular note is the same level of cytotoxicity of both benzothiazole–thiocarbamate complexes against parental cell lines and doxorubicin-resistant clones of non-cancerous mammary epithelial cells (HBL100 and HBL100/Dox) and, more importantly, chronic myelogenous leukemia cells K562 and K562/iS9. […]
A general note: Tetrazolium assays rely on reduction of a dye to a coloured formazan, in cell work by metabolically active cells.

Data set [1] has as its system acute lymphoblastic leukemia (H9) cells. Description: MTT cytotoxicity assay, H9. Format: cell-based, human. As to the method: (§2) To estimate the anticancer potential of palladacycles 2a,b, their ability to inhibit cell growth in different solid and blood cancer cell lines was determined using the conventional MTT assay.
(§3) The cytotoxicities of ligand 1b and Pd(II) pincer complexes 2a,b, V, and VI (X = O) were studied on human colorectal carcinoma (HCT116), breast cancer (MCF7), prostate adenocarcinoma (PC3), chronic myelogenous leukemia (K562 and K562/iS9), multiple plasmacytoma (AMO1), and acute lymphoblastic leukemia (H9) cell lines, as well as human embryonic kidney (HEK293) and mammary epithelial (HBL100 and HBL100/Dox) cells used as representatives of non-cancerous cell lines. All the cell lines were obtained from American Type Culture Collection (ATCC). The tested compounds were initially dissolved in DMSO. […] The detailed procedure is described in Ref. [52].

In data set [2] the test system is chronic myelogenous leukemia K562 cells. Kind of data set: MTT cytotoxicity assay, K562. It is filed as cell-based, human. As to the method: as §2, §3
For data set [3], the system named is mammary epithelial HBL100 cells. Kind of data set: MTT cytotoxicity assay, HBL100. As to conditions: HBL100 (non-cancerous). It is filed as cell-based, human. The procedure:
as §2, §3

Data set [4] concerns doxorubicin-resistant mammary epithelial HBL100/Dox cells. Kind of data set: MTT cytotoxicity assay, HBL100/Dox. It is filed as cell-based, human. To be noted: HBL100/dox (non-cancerous, doxorubicin-resistant). The procedure: as §1
(§4) However, in certain cases, the selectivity indices approached and even exceeded 10.0. Of particular note is the same level of cytotoxicity of both benzothiazole–thiocarbamate complexes against parental cell lines and doxorubicin-resistant clones of non-cancerous mammary epithelial cells (HBL100 and HBL100/Dox) and, more importantly, chronic myelogenous leukemia cells K562 and K562/iS9. The additional investigations by flow cytometry performed on K562 and K562/iS9 cancer cells treated with complex 2a using the Annexin V-FITC/PI double staining assay confirmed its ability to […] (Figure 4), increasing the populations of early (lower right quadrants) and late (upper right quadrants) apoptotic cells in both parental and resistant lines. These findings argue for the possibility of creating new promising anticancer agents based on the related cyclopalladated derivatives that could potentially evade drug resistance of cancer cells.
(§5) The cytotoxicities of ligand 1b and Pd(II) pincer complexes 2a,b, V, and VI (X = O) were studied on human colorectal carcinoma (HCT116), breast cancer (MCF7), prostate adenocarcinoma (PC3), chronic myelogenous leukemia (K562 and K562/iS9), multiple plasmacytoma (AMO1), and acute lymphoblastic leukemia (H9) cell lines, as well as human embryonic kidney (HEK293) and mammary epithelial (HBL100 and HBL100/Dox) cells used as representatives of non-cancerous cell lines. All the cell lines were obtained from American Type Culture Collection (ATCC). The tested compounds were initially dissolved in DMSO. Cisplatin (in the initial form of an infusion concentrate in natural saline solution) from a commercial source was used as a positive control. The detailed procedure is described in Ref. [52].

Data set [5] deals with breast cancer (MCF7) cells. Kind of data set: MTT cytotoxicity assay, MCF7. To be noted: for IC50: MCF7, MTT assay. It is filed as cell-based, human. The procedure: as §2, §3
The test system of data set [6] is multiple plasmacytoma (AMO1) cells. Kind of data set: MTT cytotoxicity assay, AMO1. It is filed as cell-based, human. As to the method: as §2, §3
For data set [7], the system named is doxorubicin-resistant chronic myelogenous leukemia K562/iS9 cells. Kind of data set: MTT cytotoxicity assay, K562/iS9. Format: cell-based, human. As to the method:
as §1, §4, §5

Data set [8] deals with human embryonic kidney (HEK293) cells. Description: MTT cytotoxicity assay, HEK293. It is filed as cell-based. As to conditions: HEK293 (non-cancerous). The procedure:
as §2, §3

Data set [9] concerns prostate adenocarcinoma (PC3) cells. Kind of data set: MTT cytotoxicity assay, PC3. Format: cell-based, human. To be noted: for IC50: PC3, MTT assay. The procedure:
as §2, §3

Data set [10] concerns human colorectal carcinoma (HCT116) cells. Description: MTT cytotoxicity assay, HCT116. It is filed as cell-based. As to conditions: for IC50: HCT116, MTT assay. The procedure:
as §2, §3

Data set [11] is described as follows: Stability by UV-vis spectroscopy. Format: physicochemical. As to the method:
as §1
The UV–vis spectra were registered on a Cary50 spectrometer in quartz cells with 10 mm path length (Figures S33–S35 in the SI).
Figure S33. […]
DMSO–PBS (1:1) registered immediately after dissolution (a) , in one ( b) or two (c) days Note: a reduction in the absorbance in the case of the DMSO–PBS (1:1) solution in time is connected […]
To confirm its identity, the resulting precipitate was collected by filtration, dried in air, dissolved in neat DMSO, and immediately analyzed by UV-Vis spectroscopy (see Fig. S35). […]

For `CCN(CC)C(=S)Oc1cccc(-c2nc3ccccc3s2)c1` [1b, O-[3-(Benzo[d]thiazol-2-yl)phenyl] Diethylthiocarbamate], in the data set on human cell lines, the cytotoxicity result was “nontoxic”.

By IC50 is commonly meant the midpoint of a concentration-inhibition curve. Turning to `CN(C)C1=[S+][Pd-2]2([Cl])[c]3c(cccc3-c3sc4ccccc4[n+]32)O1` (centres unmarked) [2a], the half-inhibitory concentration (IC50) in data set [1] was 1.3 ± 0.1 µM; in [2] it was 0.9 ± 0.2 µM; in data set [3], 3.2 ± 0.5 µM; in [4] it was 4.4 ± 0.8 µM; in [5] it was 3.3 ± 0.4 µM; in [6] it was 0.3 ± 0.1 µM. The concentration for half-maximal inhibition (IC50) worked out at 0.9 ± 0.1 µM in data set [7], 2.5 ± 0.2 µM in [8], 1.1 ± 0.3 µM in data set [9] and 1.3 ± 0.2 µM in data set [10].

Regarding `CCN(CC)C1=[S+][Pd-2]2([Cl])[c]3c(cccc3-c3sc4ccccc4[n+]32)O1` (centres unmarked) [2b], the 50% inhibitory concentration (IC50) in data set [1] worked out at 2.1 ± 0.9 µM; in [2], 2.9 ± 0.4 µM; in [3], 10.2 ± 3.3 µM; in [4], 16.3 ± 3.8 µM; in [5], 13.5 ± 2.1 µM; in [6], 4.4 ± 0.8 µM. For the same compound, the IC50 is 2.6 ± 0.8 µM in data set [7], 9.5 ± 0.7 µM in [8], 8.5 ± 2.5 µM in data set [9] and 12.7 ± 1.5 µM in data set [10]. In data set [11] (DMSO–PBS (1:1), up to 2 days), the “behaviour in DMSO–PBS (1:1) solution in time (reduction in absorbance)” value was “gradual precipitation”. For the same compound, in [11] (neat DMSO, DMSO–water and DMSO–PBS mixtures (1:1), 2 days), the “stability of the pincer-type framework” value is “confirmed”.

`N.N.[Cl][Pt][Cl]` [Cisplatin, reference compound]: the IC50 was determined as 23.6 ± 3.6 µM in data set [4] and 16 ± 2 µM in data set [7].

As to `[Cl][Pd-2]12[S+]=P(c3ccccc3)(c3ccccc3)c3cccc([c]31)-c1sc3ccccc3[n+]12` (centres unmarked) [V, reference compound], the “percentage of living cells” value is listed as “over 60%” in data set [5] (MCF7, at a concentration of 80 μM); “over 60%” in data set [9] (PC3, at a concentration of 80 μM); “over 60%” in [10] (HCT116, at a concentration of 80 μM).

On to `[Cl][Pd-2]12[S+]=P(c3ccccc3)(c3ccccc3)Oc3cccc([c]31)-c1sc3ccccc3[n+]12` (centres unmarked) [VI (X = O), reference compound], for which the 50% inhibitory concentration (IC50) was determined as 1.7 ± 0.3 µM in data set [1]; 1.9 ± 0.3 µM in [2]; 9.4 ± 0.9 µM in data set [3]; 28.6 ± 3.8 µM in data set [4]; 17 ± 0.5 µM in data set [5]; 3.4 ± 0.5 µM in data set [6]. The half-inhibitory concentration (IC50) worked out at 2.5 ± 0.4 µM in data set [7], 13 ± 0.5 µM in data set [8], 6.6 ± 0.6 µM in data set [9] and 10.3 ± 0.8 µM in data set [10].
